system: rat mixed cerebral cell culture; assay: Neutralizing effect on LPS-induced cytotoxicity in a rat mixed cerebral cell culture system (LIC assay), MTT method; format: cell-based; settings: concentration giving a recovery rate of 50%, usually 4-5 days incubation, read-out: ED50 (the source's name)
Protocol: Neutralizing effect on lipopolysaccharide (LPS)--induced cytotoxicity in a rat mixed cerebral cell culture system (LIC assay)
LPS, a substance known to activate glial cells (astrocytes, microglia), was added to a rat mixed cerebral cell culture system and the compounds which would neutralize the cytotoxicity induced by LPS were screened by the following method.
(1) Neonatal rat mixed cerebral cell culture
From neonatal Crj:CD (SD) rats (1-3 days old, Charles-River Japan, Ltd.), the brains were isolated and placed in ice-cold D-MEM/10% FCS (Dulbecco's cell culture minimal essential medium supplemented with 10% of fetal calf serum, 100 units/ml of penicillin and 100 μg/ml of streptomycin). Then, mixed cerebral cell cultures were carried out in the following steps.
1. The cerebrums were separated from the enucleated brains and the meninges was removed under the stereoscopic microscope.
2. The cerebrums were placed in a nylon-mesh (100-200 μm) bag to filter with the aid of a rubber policeman.
3. Using ice-cold D-MEM/10% FCS, the cells were washed 3 times (1000 rpm, 8 min.). Then, this cell suspension was filtered through a cell strainer (40 μm mesh, Falcon 2340) and the number of viable cells was counted by the trypan blue method.
4. The cells, were seeded in wells of a 96-well microtiter plate (Nunc) at a cell density of 1×10^5 cells/100 μl/well, and started a cell culture at 37° C.
5. One week later, 100 μl/well of D-MEM/10% FCS was added.
6. The plate was further incubated for about 1-2 weeks and the neutralizing activity of the test compound was evaluated by the following method.
(2) Evaluation of neutralizing activity in LPS-induced cytotoxicity
1. Following the rat mixed cerebral cell culture described in (1) (after 2-3 weeks of incubation), the medium was discarded from the respective wells of the 96-well microtiter plate, and 50 μl/well of fresh D-MEM/2% FCS was added.
2. A test sample and LPS (Difco, E. coli 011: B4, Bacto) of a suitable concentration, 25 μl each per well, were respectively added. D-MEM/2% FCS was used as the medium.
As the test sample, each of the compounds shown in Table 32 was dissolved in DMSO at a concentration of 10 ^-2 M and the solution was diluted with D-MEM/2% FCS and submitted for assay.
3. After a suitable period (usually 4-5 days) of incubation, the degree of cytotoxic effect was assessed by the microscopic observation, and MTT method.
(3) MTT [3-(4,5-dimethylthiazol-2-yl)-2,5-diphenyltetra zolium bromide] method
Ten μl of MTT solution (5 mg/ml, Sigma) dissolved in phosphate-buffered saline was added to each well. After 4-6 hours of incubation (37° C., under 10% CO2), 100 μl/well of 0.01N-hydrochloric acid containing 10% SDS was added, whereby the formed formazan was dissolved. After complete dissolution, the absorbance (540-590 nm) was measured for each well.
The ED50 values were determined by calculating the recovery rates by means of the following equation and plotting the concentrations of compounds giving a recovery rate of 50% on graph paper.
Recovery rate (%)=(C-B)×100/(A-B)
[A: the absorbance at 550 nm of the control well to which only the medium had been added
B: the absorbance at 550 nm of the well to which LPS had been added
C: the absorbance at 550 nm of the well to which both LPS and the test compound had been added]

SMILES | EC50
O=C(CCCCCCc1ccc2ccccc2n1)NO [Compound 1-3, 7-(2-quinolyl)heptanohydroxamic acid] | 0.02 µM
O=C(CCCC/C=C\c1ccc2ccccc2n1)NO [Compound 1-4, (Z)-7-(2-quinolyl)-6-heptenohydroxamic acid] | 0.04 µM
N#CC(CCCCCC(=O)NO)c1cccc2ccccc12 (stereo not shown) [Compound 3-2, 7-Cyano-7-(1-naphthyl)heptanohydroxamic acid] | 0.03 µM
COc1ccc(C(CCCCC(=O)NOC(C)=O)C2=C(C)C(=O)c3ccccc3C2=O)cc1 (stereo not shown) [Compound 7-1, O-Acetyl-6-(4-methoxyphenyl)-6-(3-methyl-1,4-naphthoquinon-2-yl)hexanohydroxamic acid] | 0.05 µM
CC(=O)ONC(=O)CCCCCC(C1=C(C)C(=O)C(C)=C(C)C1=O)c1ccccc1 (stereo not shown) [Compound 7-2, O-acetyl-7-(3,5,6-trimethylbenzoquinon-2-yl)-7-phenylheptanohydroxamic acid] | 0.05 µM
CC(=O)ONC(=O)CCCCCCc1ccc2ccccc2c1O [Compound 7-3, O-acetyl-7-(1-hydroxy-2-naphthyl)heptano-hydroxamic acid] | 0.4 µM
CC(=O)ONC(=O)CCCCCc1ccc2ccccc2n1 [Compound 7-4, O-acetyl-6-(2-quinolyl)hexanohydroxamic acid] | 0.4 µM
CCC(=O)ONC(=O)CCCCCC(C1=C(C)C(=O)C(C)=C(C)C1=O)c1ccccc1 (stereo not shown) [Compound 7-5, O-propionyl-7-(3,5,6-trimethylbenzoquinon-2-yl)-7-phenylheptanohydroxamic acid] | 0.05 µM
CCC(=O)ONC(=O)CCCCC(C1=C(C)C(=O)c2ccccc2C1=O)c1ccc(OC)cc1 (stereo not shown) [Compound 7-6, O-propionyl-6-(4-methoxyphenyl)-6-(3-methyl-1,4-naphthoquinon-2-yl)hexanohydroxamic acid] | 0.05 µM
CCC(=O)ONC(=O)CCCCCc1ccc2ccccc2n1 [Compound 7-7, O-propionyl-6-(2-quinolyl)hexanohydroxamic acid] | 0.5 µM
CCC(=O)ONC(=O)CCCCCC(C#N)c1cccc2ccccc12 (stereo not shown) [Compound 7-8, O-propionyl-7-cyano-7-(1-naphthyl)heptanohydroxamic acid] | 0.03 µM
CC1=C(C)C(=O)C(C(CCCCCC(=O)NOC(=O)CC(C)C)c2ccccc2)=C(C)C1=O (stereo not shown) [Compound 7-9, O-isovaleryl-7-(3,5,6-trimethylbenzoquinon-2-yl)-7-phenylheptanohydroxamicacid] | 0.2 µM
COc1ccc(C(CCCCC(=O)NOC(=O)C(C)C)C2=C(C)C(=O)c3ccccc3C2=O)cc1 (stereo not shown) [Compound 7-10, O-isobutyryl-6-(4-methoxyphenyl)-6-(3-methyl-1,4-naphthoquinon-2-yl)hexanohydroxamic acid] | 0.3 µM
CC1=C(C)C(=O)C(C(CCCCCC(=O)NOC(=O)C(C)C)c2ccccc2)=C(C)C1=O (stereo not shown) [Compound 7-11, O-isobutyryl-7-(3,5,6-trimethylbenzoquinon-2-yl)-7-phenylheptanohydroxamicacid] | 0.2 µM
N#CC(CCCCCC(=O)NOC(=O)c1ccccc1)c1cccc2ccccc12 (stereo not shown) [Compound 7-12, O-benzoyl-7-cyano-7-(1-naphthyl)heptano-hydroxamic acid] | 0.03 µM
N#CC(CCCCC(=O)NOC(=O)c1ccccc1)c1cccc2ccccc12 (stereo not shown) [Compound 7-13, O-benzoyl-6-cyano-6-(1-naphthyl)hexanohyroxamic acid] | 0.05 µM
COc1ccc(C(CCCCC(=O)NOC(=O)c2ccccc2)C2=C(C)C(=O)c3ccccc3C2=O)cc1 (stereo not shown) [Compound 7-14, O-benzoyl-6-(4-me-Ehoxyphenyl)-6-(3-methyl-1,4-naphthoquinon-2-yl)hexanohydroxamic acid] | 0.2 µM
CC1=C(C)C(=O)C(C(CCCCCC(=O)NOC(=O)c2ccccc2)c2ccccc2)=C(C)C1=O (stereo not shown) [Compound 7-15, O-benzoyl-7-(3,5,6-trimethylbenzoquinon-2-yl)-7-phenylheptanohydroxamic acid] | 0.5 µM
O=C(CCCCCc1ccc2ccccc2n1)NOC(=O)c1ccccc1 [Compound 7-16, O-benzoyl-6-(2-quinolyl)hexanohydroxamic acid] | 0.3 µM

Reference: patent US5804601A, “Aromatic hydroxamic acid compounds, their production and use” (Takeda Chemical Industries, Ltd., priority 1995, dated 1998)
